Tests used:
SUDHL-4 = test: Cell cycle profile by FACS (propidium iodide DNA content); format: cell-based; settings: SUDHL-4, 48 hr treatment
Description: Lymphoma cell line cells were treated with the KSP inhibitors of the invention and analyzed by FACs analysis. Approximately 2×10^5 cells were harvested, cell pellets were washed with cold PBS twice and re-suspended in 500 μL cold PBS. Cells were fixed by adding 8 mL cold 80% ethanol while vortexing slowly. After 15 minutes of incubation fixed cells were washed twice with PBS and cell pellets were re-suspended in 1 mL of PI/RNASE staining buffer (BD Pharmingen™ catalog #550825) and incubated for 15 minutes at 37° C. protected from light. Propidium iodide (PI) is a fluorescent vital dye that stains both DNA and RNA. Therefore the RNA must be removed by digestion with ribonuclease (RNase). Stained cells were passed through a cell strainer into a FACS tube to reduce the number of cell aggregates (BD Falcon #352235) prior to FACS analysis. The DNA content of the fixed and stained cells was analyzed by the BD FACSCalibur flow cytometer using the CellQuest software.
Following mitotic arrest, cells have several options including coming out of arrest and dividing normally, undergoing apoptosis directly, or exiting mitosis without cytokinesis (a phenomenon called mitotic slippage). If cells undergo mitotic slippage, they can enter a pseudo-G1 and then either continue to cycle, senesce, or undergo apoptosis. […]

[1] = tested on: primary blast cells from AML patients; test: Cell cycle analysis using propidium iodide staining, AML blasts; format: cell-based, human; settings: 0.2 and 2 nM
Description: Primary blast cells from AML patients were tested for sensitivity to compound IIa as shown below. Frozen AML blasts from peripheral blood were obtained from AllCell LLC. (Emeryville, Calif.). Three frozen vials containing ˜1×10^7 PBMCs were purchased. Peripheral blood mononuclear cells (PBMCs) from three newly diagnosed AML patients with a high percentage of blasts (#06-188, 80%; #06-366, 88%; #06-503, 73%) were cultured for several weeks and treated with the KSP inhibitors. The vials were rapidly thawed and the cells were cultured in Iscove's DMEM supplemented with 10% FBS and the following cytokines all at 10 ng/ml: GM-CSF, G-CSF, SCF, IL-3, and IL-6 (all from R&D Systems). Three assays were performed on the cells as follows: • CellTiter-Glo® assay on AML blasts. PBMCs containing AML blasts were seeded in 96-well plates (5000/well) and treated with various concentrations of the compound IIa (10 pM to 10 nM) for 48 hours before cells survival was measured as described above. GI50 values (nM) were calculated as for cell lines. • Cell cycle analysis using propidium iodide staining. […] The DNA content of the fixed and stained cells was analyzed by the BD FACSCalibur flow cytometer using the CellQuest software. • Colony formation assay in methylcellulose containing medium. […] Colonies were counted under a microscope after 2 weeks. […]

CC(C)(C)[C@H](c1nc(-c2cc(F)ccc2F)cn1Cc1ccccc1)N(CC[C@H](N)CF)C(=O)CO [Compound IIa]
cell cycle profile (DNA content, FACS) (SUDHL-4): underwent apoptosis after 48 hr treatment | cell cycle profile, 4N population ([1]; sample #06-366, 24 hours): increase in the number of cells arrested in mitosis | cell cycle profile, <2N population ([1]; sample #06-366, 48 hours): increase in the number of dying cells

Reference: patent US8252832B2, “Kinesin inhibitors as cancer therapeutics” (Novartis AG, priority 2007, dated 2012)
